16 compounds from patent publication US20230117470A1, “SUBSTITUTED PYRAZOLE COMPOUNDS AS TOLL RECEPTOR INHIBITORS” (BRISTOL-MYERS SQUIBB COMPANY, priority 2019, published 2023) can be followed below.

The structures appear in SMILES notation.

A word on the IC50: it is the concentration that inhibits the measured activity by half. Low readings indicate greater potency, high ones weaker potency.

What all share (type): cell-based
One assay deals with T1, human TLR7 (Homo sapiens, UniProt Q9NYK1).
T1 construct: host or cells: HEK-Blue cells
T1 sequence (Q9NYK1 27-1049): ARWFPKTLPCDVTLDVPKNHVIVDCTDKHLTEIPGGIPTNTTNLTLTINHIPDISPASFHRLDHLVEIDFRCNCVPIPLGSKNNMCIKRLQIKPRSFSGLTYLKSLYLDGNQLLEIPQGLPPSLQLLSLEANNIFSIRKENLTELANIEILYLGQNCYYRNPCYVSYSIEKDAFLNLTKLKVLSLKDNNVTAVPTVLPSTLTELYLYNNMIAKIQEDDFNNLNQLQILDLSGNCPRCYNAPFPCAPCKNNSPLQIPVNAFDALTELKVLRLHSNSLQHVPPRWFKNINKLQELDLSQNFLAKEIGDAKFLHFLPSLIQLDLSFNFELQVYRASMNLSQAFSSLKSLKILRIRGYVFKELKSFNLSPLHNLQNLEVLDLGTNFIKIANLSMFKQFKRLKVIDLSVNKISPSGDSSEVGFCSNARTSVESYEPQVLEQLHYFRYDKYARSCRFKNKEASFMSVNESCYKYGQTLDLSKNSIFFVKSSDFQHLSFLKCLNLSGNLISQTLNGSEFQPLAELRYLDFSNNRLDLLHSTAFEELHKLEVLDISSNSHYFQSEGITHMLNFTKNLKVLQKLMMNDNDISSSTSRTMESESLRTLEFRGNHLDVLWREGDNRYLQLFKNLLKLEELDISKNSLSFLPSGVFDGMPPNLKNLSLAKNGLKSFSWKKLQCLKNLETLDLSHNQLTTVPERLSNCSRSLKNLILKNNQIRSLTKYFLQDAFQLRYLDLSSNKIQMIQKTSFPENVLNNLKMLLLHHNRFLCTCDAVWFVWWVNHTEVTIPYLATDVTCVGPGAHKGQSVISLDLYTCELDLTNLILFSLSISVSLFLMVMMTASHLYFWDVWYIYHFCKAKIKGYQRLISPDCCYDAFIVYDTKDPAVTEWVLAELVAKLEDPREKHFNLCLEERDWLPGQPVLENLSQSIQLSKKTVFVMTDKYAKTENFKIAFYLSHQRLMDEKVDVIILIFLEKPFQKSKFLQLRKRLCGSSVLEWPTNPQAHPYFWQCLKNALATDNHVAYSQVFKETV
Description: TLR7 inhibition reporter assay (HEK-Blue cells, SEAP reporter, gardiquimod stimulation). The conditions noted are these: HEK-Blue cells overexpressing human TLR7, SEAP reporter, gardiquimod 7.5 μM. In short, it runs like this: (§1)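 HEK-Blue cells overexpressing human TLR7, TLR8 or TLR9, with an NF-κB/AP-1-driven SEAP reporter, pre-treated 30 min at room temperature with compound (0.05 nM-50 μM final). Stimulated with 7.5 μM gardiquimod (TLR7), 15.9 μM R848 (TLR8) or 5 nM ODN2006 (TLR9), then 22 h at 37° C. SEAP read with HEK-Blue Detection; % inhibition set against agonist+DMSO and known-inhibitor wells.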
(In general: In a reporter assay the amount or activity of a reporter protein is the signal.)

For the next assay, the target named is T2, human TLR8 (Homo sapiens, UniProt Q9NR97).
T2 construct: host or cells: HEK-Blue cells
T2 sequence (Q9NR97 27-1041): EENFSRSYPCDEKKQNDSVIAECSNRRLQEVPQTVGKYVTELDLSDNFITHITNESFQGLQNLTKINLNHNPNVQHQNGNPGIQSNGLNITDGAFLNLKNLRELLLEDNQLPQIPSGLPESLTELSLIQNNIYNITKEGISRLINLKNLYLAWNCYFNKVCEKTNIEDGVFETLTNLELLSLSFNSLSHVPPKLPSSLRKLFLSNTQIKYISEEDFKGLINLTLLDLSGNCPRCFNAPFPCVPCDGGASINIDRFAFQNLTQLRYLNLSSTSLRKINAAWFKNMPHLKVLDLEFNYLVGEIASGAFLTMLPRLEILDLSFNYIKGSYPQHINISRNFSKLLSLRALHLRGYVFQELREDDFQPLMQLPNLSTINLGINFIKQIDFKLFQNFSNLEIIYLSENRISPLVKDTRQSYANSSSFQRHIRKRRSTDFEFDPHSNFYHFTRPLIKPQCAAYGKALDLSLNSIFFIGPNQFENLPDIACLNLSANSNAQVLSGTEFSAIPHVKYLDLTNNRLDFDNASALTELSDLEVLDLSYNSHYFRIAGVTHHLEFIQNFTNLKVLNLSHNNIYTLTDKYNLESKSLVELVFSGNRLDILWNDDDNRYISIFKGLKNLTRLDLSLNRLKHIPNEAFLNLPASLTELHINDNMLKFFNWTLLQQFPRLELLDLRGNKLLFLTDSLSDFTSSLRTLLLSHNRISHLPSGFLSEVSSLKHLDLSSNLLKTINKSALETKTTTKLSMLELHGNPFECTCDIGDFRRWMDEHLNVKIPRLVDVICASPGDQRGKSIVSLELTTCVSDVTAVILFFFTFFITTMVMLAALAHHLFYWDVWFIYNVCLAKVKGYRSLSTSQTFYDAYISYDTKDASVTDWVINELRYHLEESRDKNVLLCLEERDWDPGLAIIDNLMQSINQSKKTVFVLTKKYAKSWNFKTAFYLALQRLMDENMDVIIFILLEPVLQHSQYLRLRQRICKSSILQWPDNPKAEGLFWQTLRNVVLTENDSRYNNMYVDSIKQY
As to the kind of experiment: TLR8 inhibition reporter assay (HEK-Blue cells, SEAP reporter, R848 stimulation). As to conditions: HEK-Blue cells overexpressing human TLR8, SEAP reporter, R848 15.9 μM. In short, it runs like this:
as §1

The target of another assay is T3, human TLR9 (Homo sapiens, UniProt Q9NR96).
T3 construct: host or cells: HEK-Blue cells
T3 sequence (Q9NR96 26-1032): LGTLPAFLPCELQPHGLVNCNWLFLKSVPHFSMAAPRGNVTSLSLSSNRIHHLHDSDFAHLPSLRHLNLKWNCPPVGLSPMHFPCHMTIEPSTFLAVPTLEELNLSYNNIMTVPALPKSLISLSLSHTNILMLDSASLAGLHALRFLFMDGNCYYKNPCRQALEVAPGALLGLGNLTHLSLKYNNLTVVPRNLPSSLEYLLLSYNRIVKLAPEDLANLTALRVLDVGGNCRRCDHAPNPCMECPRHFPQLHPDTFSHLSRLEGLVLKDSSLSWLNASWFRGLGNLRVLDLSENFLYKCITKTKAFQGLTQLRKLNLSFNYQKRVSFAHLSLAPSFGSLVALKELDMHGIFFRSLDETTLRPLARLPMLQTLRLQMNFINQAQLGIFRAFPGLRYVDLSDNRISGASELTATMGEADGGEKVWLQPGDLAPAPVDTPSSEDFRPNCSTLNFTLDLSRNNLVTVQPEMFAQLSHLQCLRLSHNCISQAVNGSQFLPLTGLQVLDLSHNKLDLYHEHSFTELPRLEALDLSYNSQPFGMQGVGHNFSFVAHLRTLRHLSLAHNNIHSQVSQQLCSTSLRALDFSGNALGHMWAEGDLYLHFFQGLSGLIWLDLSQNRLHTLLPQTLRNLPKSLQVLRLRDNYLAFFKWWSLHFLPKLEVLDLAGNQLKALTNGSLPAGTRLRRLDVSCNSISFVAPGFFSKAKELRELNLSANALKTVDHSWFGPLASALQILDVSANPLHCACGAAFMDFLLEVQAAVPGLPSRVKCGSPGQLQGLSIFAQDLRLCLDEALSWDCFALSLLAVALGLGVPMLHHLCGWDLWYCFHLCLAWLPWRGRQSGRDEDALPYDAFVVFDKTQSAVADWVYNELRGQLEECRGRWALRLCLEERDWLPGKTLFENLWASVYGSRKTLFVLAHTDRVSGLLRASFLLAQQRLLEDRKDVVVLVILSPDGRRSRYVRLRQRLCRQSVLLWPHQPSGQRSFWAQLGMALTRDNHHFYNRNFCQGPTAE
Description: TLR9 inhibition reporter assay (HEK-Blue cells, SEAP reporter, ODN2006 stimulation). The conditions noted are these: HEK-Blue cells overexpressing human TLR9, SEAP reporter, ODN2006 5 nM. In short, it runs like this:
as §1

As to `Cc1cc(-c2[nH]nc(C(=O)C(=O)NC3CCN(C(C)C)CC3)c2C(C)C)cn2ncnc12` [Example 183, 2-(4-isopropyl-5-(8-methyl-[1,2,4]triazolo[1,5-a]pyridin-6-yl)-1H-pyrazol-3-yl)-N-(1-isopropylpiperidin-4-yl)-2-oxoacetamide], the IC50 on human TLR7 was 8.89 nM; against human TLR8 it was 9.41 nM; on human TLR9, 6790 nM.
For `Cc1cc(-c2[nH]nc(CN(C)C)c2C(C)C)cn2ncnc12` [Example 184, 1-(4-isopropyl-5-(8-methyl-[1,2,4]triazolo[1,5-a]pyridin-6-yl)-1H-pyrazol-3-yl)-N,N-dimethylmethanamine] the same measures were 1.01 nM, 0.84 nM and 11400 nM.
With `CNCc1n[nH]c(-c2cc(C)c3ncnn3c2)c1C(C)C` [Example 185], the IC50 at human TLR7 came out at 7.42 nM; against human TLR8, 3.38 nM; at human TLR9, 23000 nM.
In the case of `Cc1cc(-c2[nH]nc(CNC3CCN(C(C)C)CC3)c2C(C)C)cn2ncnc12` [Example 186], the IC50 against human TLR7 worked out at 1.59 nM; at human TLR8 it was 0.21 nM; against human TLR9, 5920 nM.
Taken in the same sequence, the figures for `Cc1cc(-c2[nH]nc(CNC3CCNCC3)c2C(C)C)cn2ncnc12` [Example 187] were 10.4 nM, 4.25 nM and 8720 nM.
For `Cc1cc(-c2c(C(C)C)c(C(=O)NC3CCN(C(C)C)CC3)nn2C)cn2ncnc12` [Example 188, 4-isopropyl-N-(1-isopropylpiperidin-4-yl)-1-methyl-5-(8-methyl-[1,2,4]triazolo[1,5-a]pyridin-6-yl)-1H-pyrazole-3-carboxamide] the same measures were 0.71 nM, 0.58 nM and 10800 nM.
For `COc1cc(-c2[nH]nc(C(=O)NC3CCNCC3)c2CC(F)(F)F)cn2ncnc12` [Example 190, 5-(8-methoxy-[1,2,4]triazolo[1,5-a]pyridin-6-yl)-N-(piperidin-4-yl)-4-(2,2,2-trifluoroethyl)-1H-pyrazole-3-carboxamide] the same measures were 0.8 nM, 0.58 nM and 8350 nM.
Regarding `Cc1cc(-c2[nH]nc(C(=O)NC3CCN(C(C)C)CC3)c2CC(F)(F)F)cn2ncnc12` [Example 193], the results for the IC50 on human TLR7, at human TLR8 and against human TLR9 were 1.97 nM, 4.45 nM and 7630 nM, respectively.
For `CCCN1CCC(NC(=O)c2n[nH]c(-c3cc(OC)c4ncnn4c3)c2CC(F)(F)F)CC1` [Example 195, 5-(8-methoxy-[1,2,4]triazolo[1,5-a]pyridin-6-yl)-N-(1-propylpiperidin-4-yl)-4-(2,2,2-trifluoroethyl)-1H-pyrazole-3-carboxamide] the same measures were 2.24 nM, 1.66 nM and 5500 nM.
Taken in the same sequence, the figures for `COc1cc(-c2[nH]nc(C(=O)NC3CCN(CC4CCOCC4)CC3)c2CC(F)(F)F)cn2ncnc12` [Example 197] were 5.35 nM, 2.08 nM and 13100 nM.
Taken in the same sequence, the figures for `COc1cc(-c2[nH]nc(C(=O)NC3CCN(C4CCN(C(C)C)CC4)CC3)c2CC(F)(F)F)cn2ncnc12` [Example 199] were 4.98 nM, 2.19 nM and 2950 nM.
Take `Cc1cc(-c2[nH]nc(C(=O)NC3CCN(C4COC4)CC3)c2CC(F)(F)F)cn2ncnc12` [Example 200]: the IC50 stood at 0.92 nM on human TLR7, 0.39 nM against human TLR8 and 10100 nM against human TLR9.
With `Cc1cc(-c2[nH]nc(C(=O)NC3CCN(C4CCOCC4)CC3)c2CC(F)(F)F)cn2ncnc12` [Example 201], the half-maximal inhibitory concentration (IC50) was 6.66 nM against human TLR7, 4.21 nM on human TLR8 and 9250 nM against human TLR9.
Regarding `Cc1cc(-c2[nH]nc(C(=O)NC3CCN(CC4CCOCC4)CC3)c2CC(F)(F)F)cn2ncnc12` [Example 204], the IC50 was determined as 1.5 nM against human TLR7, 0.63 nM on human TLR8 and 17800 nM at human TLR9.
Taken in the same sequence, the figures for `CNC(=O)CN1CCC(NC(=O)c2n[nH]c(-c3cc(OC)c4ncnn4c3)c2CC(F)(F)F)CC1` [Example 205, 5-(8-methoxy-[1,2,4]triazolo[1,5-a]pyridin-6-yl)-N-(1-(2-(methylamino)-2-oxoethyl)piperidin-4-yl)-4-(2,2,2-trifluoroethyl)-1H-pyrazole-3-carboxamide] were 6.66 nM, 2.33 nM and 21500 nM.
Regarding `Cc1cc(-c2[nH]nc(C3CCN(C)CC3)c2C(C)C)cn2ncnc12` [Example 206, 6-(4-isopropyl-3-(1-methylpiperidin-4-yl)-1H-pyrazol-5-yl)-8-methyl-[1,2,4]triazolo[1,5-a]pyridine], the values for the IC50 against human TLR7, at human TLR8 and on human TLR9 were 2.27 nM, 0.64 nM and 12600 nM, respectively.
